The source of these data is ChEMBL document CHEMBL3046217, “Synthesis, antimicrobial, antioxidant, anti-inflammatory, and analgesic activities of some new 3-(2-thienyl)pyrazole-based heterocycles” (Med Chem Res, 2012).

One may read the IC50 as the concentration at which inhibition is half-maximal. In general, MIC refers to the least concentration at which growth counts as inhibited. Read a low MIC as greater potency.

The test system of one experiment is Mus musculus. In words: Analgesic activity in Mus musculus Swiss albino (mouse) assessed as inhibition of acetic acid-induced writhing at 20 mg/kg, po administered 30 min before acetic acid challenge measured for 20 min after acetic acid injection […]. The format is functional, organism-based. More on the design: dose 20 mg/kg. (In general: An intraperitoneal irritant provokes the stretching counted in writhing tests.)

In another experiment the test system is Rattus norvegicus. In words: Anti-inflammatory activity in Rattus norvegicus Sprague-Dawley (rat) assessed as inhibition of carrageenan-induced paw edema at 20 mg/kg, po administered 1 hr before carrageenan challenge and measured hourly for 4-hr post drug administration by mercury plethysmometer. The format is functional, organism-based. Set-up: dose 20 mg/kg. A general note: The carrageenan paw model is a standard test of acute inflammation.

Experiment [1] deals with Radical scavenging activity. In words: Antioxidant activity assessed as as DPPH radical scavenging activity by spectrophotometry. The format is functional.
The next experiment deals with Aspergillus niger. In words: Antimicrobial activity against Aspergillus niger after 24 hr by agar diffusion method. The format is functional, organism-based. For orientation: Agar diffusion results depend on both activity and mobility in agar.
Another experiment relates to Saccharomyces cerevisiae. In words: Antimicrobial activity against Saccharomyces cerevisiae after 24 hr by agar diffusion method. The format is functional. Particulars: for MIC: Saccharomyces cerevisiae, 24 h.
A further experiment deals with Candida albicans. In words: Antimicrobial activity against Candida albicans NRRLY-477 after 24 hr by agar diffusion method. The format is functional. Particulars: for MIC: Candida albicans, NRRLY-477, 24 h.
The next experiment deals with Mycolicibacterium phlei. In words: Antimicrobial activity against Mycobacterium phlei after 24 hr by agar diffusion method. The format is functional.
Another experiment deals with Enterococcus faecalis. In words: Antimicrobial activity against Enterococcus faecalis ATCC 29212 after 24 hr by agar diffusion method. The format is functional. Particulars: for MIC: Enterococcus faecalis, ATCC 29212, 24 h.
A further experiment relates to Pseudomonas aeruginosa. In words: Antimicrobial activity against Pseudomonas aeruginosa ATCC 29953 after 24 hr by agar diffusion method. The format is functional. The following applies: for MIC: Pseudomonas aeruginosa, ATCC 29953, 24 h.
For the next experiment, the system named is Klebsiella pneumoniae. In words: Antimicrobial activity against Klebsiella pneumoniae ATCC 13883 after 24 hr by agar diffusion method. The format is functional. The following applies: for MIC: Klebsiella pneumoniae, ATCC 13883, 24 h.
In a further experiment the test system is Enterobacter cloacae. In words: Antimicrobial activity against Enterobacter cloacae ATCC 3047 after 24 hr by agar diffusion method. The format is functional. The following applies: for MIC: Enterobacter cloacae, ATCC 3047, 24 h.
Another experiment relates to Salmonella typhi. In words: Antimicrobial activity against Salmonella enterica subsp. enterica serovar Typhi after 24 hr by agar diffusion method. The format is functional. Particulars: for MIC: Salmonella enterica, 24 h.
In a further experiment the test system is Bacillus spizizenii. In words: Antimicrobial activity against Bacillus subtilis subsp. spizizenii ATCC 6633 after 24 hr by agar diffusion method. The format is functional. The following applies: for MIC: Bacillus spizizenii, ATCC 6633, 24 h.
For a further experiment, the system named is Staphylococcus aureus. In words: Antimicrobial activity against Staphylococcus aureus ATCC 29213 after 24 hr by agar diffusion method. The following applies: for MIC: Staphylococcus aureus, ATCC 29213, 24 h. The format is functional.
A further experiment has as its system Escherichia coli. The following applies: ATCC 25922.

Converted amounts (≈) assume the structure as drawn. The source made the active and inactive calls. The rule behind the calls is not given here.

Description for Escherichia coli: Antimicrobial activity against Escherichia coli ATCC 25922 after 24 hr by agar diffusion method

As for `Clc1ccc(C2=NNC(c3cn(-c4ccccc4)nc3-c3cccs3)C2)cc1` (centres undefined), the inhibition entry in the experiment with Mus musculus and in the experiment with Rattus norvegicus was “Active” in each case. Also, the IC50 in [1] turned out to be 750 µg/mL (≈ 1850 µM). The result in the experiment on Aspergillus niger was inactive. In addition, the “inhibition zone (IZ)” value in the experiment with Saccharomyces cerevisiae is on record as 31 mm; with Candida albicans, 17 mm; with Enterococcus faecalis it was 21 mm; with Pseudomonas aeruginosa it was 26 mm; in the experiment with Enterobacter cloacae it was 21 mm; with Bacillus spizizenii it was 17 mm. Moreover, the “inhibition zone (IZ)” value in the experiment with Staphylococcus aureus is 20 mm. Besides, the MIC is 20.8 µg/mL (≈ 51.4 µM) against Saccharomyces cerevisiae; 167 µg/mL (≈ 411 µM) in the experiment on Candida albicans; 41.6 µg/mL (≈ 103 µM) with Enterococcus faecalis; 167 µg/mL (≈ 411 µM) against Pseudomonas aeruginosa; 83.3 µg/mL (≈ 206 µM) against Enterobacter cloacae; 333 µg/mL (≈ 823 µM) against Bacillus spizizenii. Besides, inhibition of growth against Staphylococcus aureus (MIC) required 333 µg/mL (≈ 823 µM). Besides, the “inhibition zone (IZ)” value with Mycolicibacterium phlei, in the experiment on Klebsiella pneumoniae and in the experiment with Salmonella typhi was “inactive” each time. Also, the IZ entry in the experiment on Escherichia coli was “inactive”.

Consider `Cc1nc(N/N=C\c2cn(-c3ccccc3)nc2-c2cccs2)sc1/N=N/c1ccc(F)cc1`, for which the inhibition result in the experiment on Mus musculus and in the experiment on Rattus norvegicus was “Active” throughout. Besides, the IC50 in [1] amounted to 25 µg/mL (≈ 51.3 µM). Further, in the experiment with Aspergillus niger, the result was inactive. In addition, the “inhibition zone (IZ)” value in the experiment on Saccharomyces cerevisiae amounted to 31 mm; with Candida albicans, 17 mm; in the experiment on Enterococcus faecalis, 16 mm; with Pseudomonas aeruginosa, 19 mm; with Klebsiella pneumoniae, 18 mm; with Enterobacter cloacae, 26 mm. The “inhibition zone (IZ)” value with Bacillus spizizenii worked out at 22 mm; in the experiment with Staphylococcus aureus, 21 mm. The MIC against Saccharomyces cerevisiae was found to be 20.8 µg/mL (≈ 42.7 µM); against Candida albicans, 167 µg/mL (≈ 342 µM); in the experiment on Pseudomonas aeruginosa, 333 µg/mL (≈ 684 µM); in the experiment with Klebsiella pneumoniae, 167 µg/mL (≈ 342 µM); against Enterobacter cloacae, 41.6 µg/mL (≈ 85.3 µM); against Bacillus spizizenii, 167 µg/mL (≈ 342 µM). Further, the MIC against Staphylococcus aureus was found to be 41.8 µg/mL (≈ 85.7 µM). Moreover, the “inhibition zone (IZ)” value in the experiment with Mycolicibacterium phlei and in the experiment with Salmonella typhi was “inactive” each time. For the same compound, the IZ entry with Escherichia coli was “inactive”.

Consider `O=C(O)c1cn(C2CC2)c2cc(N3CCNCC3)c(F)cc2c1=O` [CIPROFLOXACIN], for which the “inhibition zone (IZ)” value in the experiment with Saccharomyces cerevisiae and in the experiment with Candida albicans was “inactive” in each case. In addition, the “inhibition zone (IZ)” value in the experiment on Mycolicibacterium phlei stood at 22 mm; in the experiment on Enterococcus faecalis, 23 mm; in the experiment with Pseudomonas aeruginosa it was 24 mm; in the experiment on Salmonella typhi, 21 mm; in the experiment with Bacillus spizizenii, 22 mm. Further, the minimum inhibitory concentration (MIC) in the experiment on Salmonella typhi turned out to be 41.6 µg/mL (≈ 126 µM); in the experiment with Bacillus spizizenii it was 10.4 µg/mL (≈ 31.4 µM).

Take `C(=N/Nc1nc(-c2cc3ccccc3o2)cs1)/c1cn(-c2ccccc2)nc1-c1cccs1`: the inhibition result in the experiment on Mus musculus and in the experiment with Rattus norvegicus was “Active” in each case. Moreover, the IC50 in experiment [1] stood at 25 µg/mL (≈ 53.5 µM). In addition, the outcome in the experiment with Aspergillus niger was inactive. Also, the “inhibition zone (IZ)” value in the experiment on Saccharomyces cerevisiae, with Candida albicans, in the experiment with Mycolicibacterium phlei and in the experiment on Salmonella typhi was “inactive” in each case. Besides, the “inhibition zone (IZ)” value is 15 mm in the experiment on Enterococcus faecalis; 14 mm in the experiment with Pseudomonas aeruginosa; 15 mm in the experiment with Klebsiella pneumoniae; 15 mm in the experiment on Enterobacter cloacae; 23 mm in the experiment with Bacillus spizizenii; 21 mm in the experiment with Staphylococcus aureus. Besides, the MIC against Bacillus spizizenii and in the experiment on Staphylococcus aureus was 167 µg/mL (≈ 356 µM) each time. Besides, in the experiment with Escherichia coli, the IZ result was “inactive”.

`O=C(/C=C/c1cn(-c2ccccc2)nc1-c1cccs1)c1ccc(Cl)cc1`: the inhibition entry with Mus musculus and in the experiment on Rattus norvegicus was “Active” each time. Besides, the IC50 in experiment [1] turned out to be 1000 µg/mL (≈ 2560 µM). The result in the experiment with Aspergillus niger was inactive. The “inhibition zone (IZ)” value with Saccharomyces cerevisiae came to 29 mm; in the experiment with Candida albicans, 18 mm; with Mycolicibacterium phlei, 15 mm; in the experiment with Enterococcus faecalis, 21 mm; in the experiment on Pseudomonas aeruginosa it was 19 mm; with Klebsiella pneumoniae it was 18 mm. The “inhibition zone (IZ)” value in the experiment with Enterobacter cloacae was 24 mm; with Salmonella typhi, 24 mm; in the experiment on Bacillus spizizenii, 21 mm; with Staphylococcus aureus, 21 mm. Besides, the MIC was 20.8 µg/mL (≈ 53.2 µM) in the experiment on Saccharomyces cerevisiae; 167 µg/mL (≈ 426 µM) against Candida albicans; 83.3 µg/mL (≈ 213 µM) in the experiment on Enterococcus faecalis; 333 µg/mL (≈ 853 µM) against Pseudomonas aeruginosa; 167 µg/mL (≈ 426 µM) with Klebsiella pneumoniae; 41.6 µg/mL (≈ 106 µM) against Enterobacter cloacae. The values for the minimum inhibitory concentration (MIC) in the experiment on Salmonella typhi, against Bacillus spizizenii and against Staphylococcus aureus were 83.3 µg/mL (≈ 213 µM), 167 µg/mL (≈ 426 µM) and 167 µg/mL (≈ 426 µM), respectively. For the same compound, the IZ entry with Escherichia coli is “inactive”.

As to `Cc1ccc(NC(=S)N2N=C(c3ccc(Cl)cc3)CC2c2cn(-c3ccccc3)nc2-c2cccs2)cc1` (centres undefined), the inhibition result in the experiment with Mus musculus and with Rattus norvegicus was “Active” each time. The IC50 in [1] worked out at 500 µg/mL (≈ 902 µM). Further, in the experiment on Aspergillus niger, the outcome was inactive. Further, the “inhibition zone (IZ)” value in the experiment with Saccharomyces cerevisiae, with Pseudomonas aeruginosa and in the experiment with Salmonella typhi was “inactive” in each case. The “inhibition zone (IZ)” value in the experiment with Candida albicans turned out to be 15 mm; with Mycolicibacterium phlei it was 13 mm; in the experiment on Enterococcus faecalis, 21 mm; with Klebsiella pneumoniae, 21 mm; in the experiment on Enterobacter cloacae it was 16 mm; in the experiment with Bacillus spizizenii, 21 mm. In addition, the “inhibition zone (IZ)” value in the experiment with Staphylococcus aureus turned out to be 15 mm. For the same compound, the figures for the MIC in the experiment with Enterococcus faecalis, in the experiment on Klebsiella pneumoniae and with Bacillus spizizenii were 167 µg/mL (≈ 301 µM), 333 µg/mL (≈ 601 µM) and 167 µg/mL (≈ 301 µM), respectively. For the same compound, the IZ entry with Escherichia coli was “inactive”.

As for `N/C(=N/N=C\c1cn(-c2ccccc2)nc1-c1cccs1)SCC(=O)Nc1cccs1`, the inhibition result in the experiment with Mus musculus and with Rattus norvegicus was “Active” throughout. In [1], the IC50 was found to be 1000 µg/mL (≈ 2140 µM). In the experiment on Aspergillus niger, the result was inactive. Moreover, the “inhibition zone (IZ)” value in the experiment on Saccharomyces cerevisiae, in the experiment with Mycolicibacterium phlei and with Salmonella typhi was “inactive” in each case. Besides, the “inhibition zone (IZ)” value is recorded as 15 mm with Candida albicans; 21 mm with Enterococcus faecalis; 15 mm in the experiment on Pseudomonas aeruginosa; 18 mm in the experiment with Klebsiella pneumoniae; 28 mm in the experiment with Enterobacter cloacae; 23 mm in the experiment on Bacillus spizizenii. Moreover, the “inhibition zone (IZ)” value with Staphylococcus aureus is on record as 28 mm. Moreover, the MIC was found to be 83.3 µg/mL (≈ 179 µM) against Enterococcus faecalis; 167 µg/mL (≈ 357 µM) in the experiment on Klebsiella pneumoniae; 20.8 µg/mL (≈ 44.6 µM) against Enterobacter cloacae; 83.3 µg/mL (≈ 179 µM) against Bacillus spizizenii; 20.8 µg/mL (≈ 44.6 µM) in the experiment on Staphylococcus aureus. Also, the IZ entry with Escherichia coli was “inactive”.

As to `CC(=O)N1CCN(c2ccc(OCC3COC(Cn4ccnc4)(c4ccc(Cl)cc4Cl)O3)cc2)CC1` (racemic) [KETOCONAZOLE], the entries for the “inhibition zone (IZ)” value with Saccharomyces cerevisiae and with Candida albicans were 23 mm and 22 mm, respectively. Also, the minimum inhibitory concentration (MIC) in the experiment on Saccharomyces cerevisiae stood at 5.2 µg/mL (≈ 9.78 µM); against Candida albicans, 10.4 µg/mL (≈ 19.6 µM). Further, the “inhibition zone (IZ)” value with Mycolicibacterium phlei, with Enterococcus faecalis, in the experiment with Pseudomonas aeruginosa, in the experiment on Klebsiella pneumoniae, in the experiment with Enterobacter cloacae and in the experiment on Salmonella typhi was “inactive” throughout. For the same compound, the “inhibition zone (IZ)” value in the experiment on Bacillus spizizenii and in the experiment on Staphylococcus aureus was “inactive” each time. In addition, in the experiment with Escherichia coli, the IZ result is “inactive”.

`O=c1oc2ccccc2cc1-c1csc(N/N=C\c2cn(-c3ccccc3)nc2-c2cccs2)n1`: the inhibition entry in the experiment with Mus musculus and with Rattus norvegicus was “Active” throughout. Further, the half-inhibitory concentration (IC50) in experiment [1] stood at 25 µg/mL (≈ 50.4 µM). In the experiment with Aspergillus niger, the outcome was inactive. The “inhibition zone (IZ)” value with Saccharomyces cerevisiae, in the experiment with Candida albicans, with Mycolicibacterium phlei, in the experiment with Pseudomonas aeruginosa and in the experiment with Salmonella typhi was “inactive” throughout. Also, the “inhibition zone (IZ)” value is 22 mm in the experiment with Enterococcus faecalis; 14 mm in the experiment on Klebsiella pneumoniae; 14 mm in the experiment with Enterobacter cloacae; 21 mm in the experiment on Bacillus spizizenii; 11 mm in the experiment with Staphylococcus aureus. Further, the MIC was determined as 83.3 µg/mL (≈ 168 µM) with Enterococcus faecalis and 167 µg/mL (≈ 336 µM) with Bacillus spizizenii. In the experiment on Escherichia coli, the IZ entry was “inactive”.

For `O=C(O)Cc1ccccc1Nc1c(Cl)cccc1Cl`, the inhibition result in the experiment with Mus musculus and with Rattus norvegicus was “Active” in each case.
